In US20240034737A1, “Heterocyclic Derivatives as P2X7 Receptor Antagonists” (BREYE THERAPEUTICS APS, priority 2020, published 2024):

Legend:
mP2X7 = mP2X7 (Mus musculus (Mouse), UniProt Q9Z1M0); test: mP2X7 channel calcium-influx assay (Fluo-8 NW, FLIPR TETRA, Bz-ATP stimulation); format: cell-based
Summary of the method: (§1)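 HEK-293 cells stably expressing human or mouse P2X7, preloaded with Fluo-8 NW dye for 1 h at RT. Compounds added, Bz-ATP-evoked Ca2+ influx followed as fluorescence kinetics over 5 min on FLIPR TETRA; A438079 served as reference antagonist.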

P2X7 receptor = P2X7 receptor (Homo sapiens (Human), UniProt Q99572); test: Human P2X7 channel calcium-influx assay (Fluo-8 NW, FLIPR TETRA, Bz-ATP stimulation); format: cell-based; settings: HEK-293 cells stably transfected with P2X7 receptor, Low Divalent Cation Assay Buffer, read-out: hP2X7 IC50
Sequence of P2X7 receptor (Q99572 whole entry): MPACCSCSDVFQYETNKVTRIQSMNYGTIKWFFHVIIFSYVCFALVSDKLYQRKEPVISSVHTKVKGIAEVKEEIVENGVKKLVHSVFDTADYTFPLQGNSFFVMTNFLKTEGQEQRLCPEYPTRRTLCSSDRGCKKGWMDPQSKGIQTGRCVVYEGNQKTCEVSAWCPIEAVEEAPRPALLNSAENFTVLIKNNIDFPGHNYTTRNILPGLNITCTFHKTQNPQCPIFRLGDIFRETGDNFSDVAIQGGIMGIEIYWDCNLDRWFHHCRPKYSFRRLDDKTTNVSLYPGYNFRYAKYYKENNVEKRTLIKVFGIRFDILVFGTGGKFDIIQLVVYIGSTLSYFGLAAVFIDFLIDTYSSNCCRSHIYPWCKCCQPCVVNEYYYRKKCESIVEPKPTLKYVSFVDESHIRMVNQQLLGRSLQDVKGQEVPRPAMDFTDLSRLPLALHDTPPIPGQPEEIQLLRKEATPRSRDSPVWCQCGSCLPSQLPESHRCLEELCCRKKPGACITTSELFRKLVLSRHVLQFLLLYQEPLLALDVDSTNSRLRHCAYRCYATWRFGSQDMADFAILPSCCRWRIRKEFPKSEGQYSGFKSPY
Summary of the method: as §1

CYP4503A4 = CYP4503A4 metabolic induction (mRNA expression) in human cryopreserved platable hepatocytes; format: in vitro ADME; settings: 10 μM test compound, two days treatment, mRNA by QuantiGene Plex 2.0
Procedure: In Vitro Evaluation of Test Compounds for CYP4503A4 Metabolic Induction Using Human Liver Hepatocytes.
CYP induction assessment was performed using human cryopreserved platable hepatocytes. Test compound was assessed at three or six different concentrations in duplicate.
A sandwich culture of platable cryopreserved hepatocytes was used with one day recovery period after plating. Assessment of cell morphology and confluency was performed using a phase-contrast microscope for representative wells.
The plated hepatocyte cell monolayers were treated with test compound, negative and positive controls for two days changing medium every 24 hours. On the fourth day, assessment of cell morphology and confluency was repeated to ensure cell monolayer integrity. Assessment of cell morphology and confluency was performed using a phase-contrast microscope for representative wells.
Cell monolayers were assessed for test compound cytotoxicity by an adenosine triphosphate (ATP) content assay in a separate plate.
Expression levels of mRNA for CYP1A2, CYP2B6, and CYP3A4 were evaluated by the QuantiGene® Plex 2.0 methodology.

Sequence of mP2X7 (Q9Z1M0 whole entry): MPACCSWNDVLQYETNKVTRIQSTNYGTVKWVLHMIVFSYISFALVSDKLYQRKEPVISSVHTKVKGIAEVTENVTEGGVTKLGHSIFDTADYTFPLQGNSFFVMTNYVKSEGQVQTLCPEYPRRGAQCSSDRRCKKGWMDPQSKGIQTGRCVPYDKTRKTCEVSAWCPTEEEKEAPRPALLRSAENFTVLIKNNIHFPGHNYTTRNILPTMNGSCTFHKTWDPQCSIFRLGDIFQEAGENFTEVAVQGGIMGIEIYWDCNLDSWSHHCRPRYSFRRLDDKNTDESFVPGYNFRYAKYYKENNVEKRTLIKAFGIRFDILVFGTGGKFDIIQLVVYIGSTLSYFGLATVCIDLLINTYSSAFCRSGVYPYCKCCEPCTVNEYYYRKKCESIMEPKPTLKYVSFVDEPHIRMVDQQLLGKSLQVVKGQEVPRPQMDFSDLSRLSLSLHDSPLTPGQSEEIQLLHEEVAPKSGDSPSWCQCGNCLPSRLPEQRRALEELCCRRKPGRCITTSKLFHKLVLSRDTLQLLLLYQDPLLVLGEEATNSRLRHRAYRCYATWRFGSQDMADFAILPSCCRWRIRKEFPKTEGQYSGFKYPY

SMILES: Cc1nsc(OCC2CCN(C(CNC(=O)c3c(F)cccc3Cl)c3scnc3C(F)F)CC2)n1 (stereo not drawn) [Example 85, 2-Chloro-N-{2-[4-(difluoromethyl)-1,3-thiazol-5-yl]-2-(4-{[(3-methyl-1,2,4-thiadiazol-5-yl)oxy]methyl}piperidin-1-yl)ethyl}-6-fluorobenzamide]
- IC50 (mP2X7): 68.7 nM
- IC50 (P2X7 receptor): 32.4 nM
- CYP4503A4 mRNA fold increase at 10 μM (CYP4503A4): 9.7 fold

SMILES: O=C(NCC(c1scnc1C(F)F)N1CCC(Oc2cncc(Cl)n2)CC1)c1c(F)cccc1Cl (stereo not drawn) [Example 76, 2-Chloro-N-(2-{4-[(6-chloropyrazin-2-yl)oxy]piperidin-1-yl}-2-[4-(difluoromethyl)-1,3-thiazol-5-yl]ethyl)-6-fluorobenzamide]
- IC50 (mP2X7): 28.9 nM
- IC50 (P2X7 receptor): 43.7 nM
- CYP4503A4 mRNA fold increase at 10 μM (CYP4503A4): 5.1 fold

SMILES: O=C(NCC(c1scnc1C(F)F)N1CCC(Oc2cncc3nncn23)CC1)c1c(F)cccc1Cl (stereo not drawn) [Example 45]
- IC50 (mP2X7): 550 nM
- IC50 (P2X7 receptor): 254 nM
- CYP4503A4 mRNA fold increase at 10 μM (CYP4503A4): 1.9 fold

SMILES: O=C(NCC(c1scnc1C(F)F)N1CCC(Oc2ccnc(F)c2)CC1)c1c(F)cccc1Cl (stereo not drawn) [Example 80, 2-Chloro-N-{2-[4-(difluoromethyl)-1,3-thiazol-5-yl]-2-{4-[(2-fluoropyridin-4-yl)oxy]piperidin-1-yl}ethyl}-6-fluorobenzamide]
- IC50 (mP2X7): 36.9 nM
- IC50 (P2X7 receptor): 20.3 nM
- CYP4503A4 mRNA fold increase at 10 μM (CYP4503A4): 6.0 fold

SMILES: N#Cc1cc(OCC2CCN(C(CNC(=O)c3c(F)cccc3Cl)c3scnc3C(F)F)CC2)ccn1 (stereo not drawn) [Example 110, 2-Chloro-N-[2-(4-{[(2-cyanopyridin-4-yl)oxy]methyl}piperidin-1-yl)-2-[4-(difluoromethyl)-1,3-thiazol-5-yl]ethyl]-6-fluorobenzamide]
- IC50 (mP2X7): 25 nM
- IC50 (P2X7 receptor): 40.6 nM
- CYP4503A4 mRNA fold increase at 10 μM (CYP4503A4): 6.5 fold

SMILES: O=C(NCC(c1scnc1C(F)F)N1CCC(COc2nnnn2-c2ccccc2)CC1)c1c(F)cccc1Cl (stereo not drawn) [Example 97, 2-Chloro-N-{2-[4-(difluoromethyl)-1,3-thiazol-5-yl]-2-(4-{[(1-phenyl-1H-1,2,3,4-tetrazol-5-yl)oxy]methyl}piperidin-1-yl)ethyl}-6-fluorobenzamide]
- IC50 (mP2X7): 13.8 nM
- IC50 (P2X7 receptor): 34 nM

SMILES: O=C(NCC(c1scnc1C(F)F)N1CCC(COc2cncc3nncn23)CC1)c1c(F)cccc1Cl (stereo not drawn) [Example 118, 2-Chloro-N-{2-[4-(difluoromethyl)-1,3-thiazol-5-yl]-2-[4-({[1,2,4]triazolo[4,3-a]pyrazin-5-yloxy}methyl)piperidin-1-yl]ethyl}-6-fluorobenzamide]
- IC50 (mP2X7): 256 nM
- IC50 (P2X7 receptor): 214 nM

SMILES: N#Cc1cncc(OC2CCN(C(CNC(=O)c3c(F)cccc3Cl)c3scnc3C(F)F)CC2)c1 (stereo not drawn) [Example 16, 2-Chloro-N-(2-{4-[(5-cyanopyridin-3-yl)oxy]piperidin-1-yl}-2-[4-(difluoromethyl)-1,3-thiazol-5-yl]ethyl)-6-fluorobenzamide]
- IC50 (mP2X7): 68.3 nM
- IC50 (P2X7 receptor): 56.9 nM

SMILES: O=C(NCC(c1scnc1C(F)F)N1CCC(Oc2nc3ccccc3o2)CC1)c1c(F)cccc1Cl (stereo not drawn) [Example 22, N-{2-[4-(1,3-Benzoxazol-2-yloxy)piperidin-1-yl]-2-[4-(difluoromethyl)-1,3-thiazol-5-yl]ethyl}-2-chloro-6-fluorobenzamide]
- IC50 (mP2X7): 12.3 nM
- IC50 (P2X7 receptor): 20.5 nM

SMILES: N#Cc1ccncc1OCC1CCN(C(CNC(=O)c2c(F)cccc2Cl)c2scnc2C(F)F)CC1 (stereo not drawn) [Example 111, 2-Chloro-N-[2-(4-{[(4-cyanopyridin-3-yl)oxy]methyl}piperidin-1-yl)-2-[4-(difluoromethyl)-1,3-thiazol-5-yl]ethyl]-6-fluorobenzamide]
- IC50 (mP2X7): 16.1 nM
- IC50 (P2X7 receptor): 22.5 nM

SMILES: O=C(NCC(c1scnc1C(F)F)N1CCC(Oc2ccc(F)cn2)CC1)c1c(F)cccc1Cl (stereo not drawn) [Example 30, 2-Chloro-N-{2-[4-(difluoromethyl)-1,3-thiazol-5-yl]-2-{4-[(5-fluoropyridin-2-yl)oxy]piperidin-1-yl}ethyl}-6-fluorobenzamide]
- IC50 (mP2X7): 24 nM
- IC50 (P2X7 receptor): 17.3 nM
